Source: US20260355188A1, “COMBINATION THERAPIES USING PRMT5 INHIBITORS AND BCL-2 FAMILY INHIBITORS FOR THE TREATMENT OF CANCER” (MIRATI THERAPEUTICS, INC., priority 2022, published 2026)

Experiments:
[1] = test system: RT4; assay: In vitro combination synergy, RT4 (Cell-Titer Glo); assay type: cell-based; conditions: combined with exemplary PRMT5 inhibitor, 120 h, sum of Loewe, Bliss, HSA and ZIP scores
Experimental: (§1) A panel of MTAP-deleted cancer cell lines was assembled to determine whether combining BCL-2 family inhibitors with exemplary PRMT5 inhibitors disclosed herein results in synergistic activity.
(§2) [Assays for determining the synergy score for the pairwise combinations for each cell line were performed in triplicate. 384 or 96-well plates plus additional wells of a separate 384 or 96-well control plate for determining baseline luminescence were seeded with cells of a particular MTAP-deleted cell line in a suitable growth medium for that cell line, e.g., RPMI 1640 medium supplemented with 10% FBS and any cell line specific reagents needed for growth. The plates were incubated overnight at 37 °C in a 5% CO2 atmosphere.
(§3) To each of the designated baseline wells, Cell-Titer Glo reagent (CTG; Promega Corporation) was added to each well and the plates were incubated for 20 min shaking at room temperature. Baseline luminescence was quantitated using a BMG ClarioStar multimode plate reader according to the manufacturer's instructions.
(§4) A series of 1000× drug dilutions in 100% DMSO was prepared that includes a 9-point single agent 3-fold dilution of the exemplary PRMT5 inhibitor (of the type described in WO2021/050915) with a top dose of 3000 nM (and a 6-point single agent 5-fold dilution of the BCL-2 family inhibitor with a top dose of 3000 nM as reference standards.
(§5) A 10× intermediate dosing plate was prepared in serum free medium that contains arrayed single agent dilutions of exemplary PRMT5 inhibitor (of the type described in WO2021/050915) and or the BCL-2 family inhibitor. In addition, a matrix of 54 dilution combinations of exemplary PRMT5 inhibitor (of the type described in WO2021/050915) and the BCL-2 family inhibitor was prepared as test samples.
(§6) To each corresponding well of the 384-well plates seeded with the appropriate cell line above, 10× single agent and the 54 combinations of the dose matrix was added and the plates were incubated for 120 hours at 37 °C in 5% CO2 atmosphere. Cell-Titer Glo reagent (CTG) was added to each test well, the plates were incubated for 20 min shaking at room temperature, and luminescence was quantitated using a BMG ClarioStar multimode plate reader according to the manufacturer's instructions. To normalize test samples, the determined baseline luminescence was subtracted from each test sample prior to analysis and mean values are calculated from replicate samples.
(§7) The output of the data from each mathematical model is the assignment of a relative synergy score. The data reported in Table 6 are the aggregate sum of the Loewe additivity, Bliss independence, Highest Single Agent and ZIP synergy scores (“Composite Synergy Score”).

[2] = test system: Miapaca2; assay: In vitro combination synergy, Miapaca2 (Cell-Titer Glo); assay type: cell-based; conditions: combined with exemplary PRMT5 inhibitor, 120 h, sum of Loewe, Bliss, HSA and ZIP scores
Experimental: as §1, §2, §3, §4, §5, §6, §7

[3] = test system: H1437; assay: In vitro combination synergy, H1437 (Cell-Titer Glo); assay type: cell-based; conditions: combined with exemplary PRMT5 inhibitor, 120 h, sum of Loewe, Bliss, HSA and ZIP scores
Experimental: as §1, §2, §3, §4, §5, §6, §7

[4] = test system: H2052; assay: In vitro combination synergy, H2052 (Cell-Titer Glo); assay type: cell-based; conditions: combined with exemplary PRMT5 inhibitor, 120 h, sum of Loewe, Bliss, HSA and ZIP scores
Experimental: as §1, §2, §3, §4, §5, §6, §7

[5] = test system: HCC4006; assay: In vitro combination synergy, HCC4006 (Cell-Titer Glo); assay type: cell-based; conditions: combined with exemplary PRMT5 inhibitor, 120 h, sum of Loewe, Bliss, HSA and ZIP scores
Experimental: as §1, §2, §3, §4, §5, §6, §7

[6] = test system: Mero84; assay: In vitro combination synergy, Mero84 (Cell-Titer Glo); assay type: cell-based; conditions: combined with exemplary PRMT5 inhibitor, 120 h, sum of Loewe, Bliss, HSA and ZIP scores
Experimental: as §1, §2, §3, §4, §5, §6, §7

[7] = test system: Mero14; assay: In vitro combination synergy, Mero14 (Cell-Titer Glo); assay type: cell-based; conditions: combined with exemplary PRMT5 inhibitor, 120 h, sum of Loewe, Bliss, HSA and ZIP scores
Experimental: as §1, §2, §3, §4, §5, §6, §7

[8] = test system: LU99; assay: In vitro combination synergy, LU99 (Cell-Titer Glo); assay type: cell-based; conditions: combined with exemplary PRMT5 inhibitor, 120 h, sum of Loewe, Bliss, HSA and ZIP scores
Experimental: as §1, §2, §3, §4, §5, §6, §7

[9] = test system: H2452; assay: In vitro combination synergy, H2452 (Cell-Titer Glo); assay type: cell-based; conditions: combined with exemplary PRMT5 inhibitor, 120 h, sum of Loewe, Bliss, HSA and ZIP scores
Experimental: as §1, §2, §3, §4, §5, §6, §7

[10] = test system: Mero83; assay: In vitro combination synergy, Mero83 (Cell-Titer Glo); assay type: cell-based; conditions: combined with exemplary PRMT5 inhibitor, 120 h, sum of Loewe, Bliss, HSA and ZIP scores
Experimental: as §1, §2, §3, §4, §5, §6, §7

[11] = test system: SW1573; assay: In vitro combination synergy, SW1573 (Cell-Titer Glo); assay type: cell-based; conditions: combined with exemplary PRMT5 inhibitor, 120 h, sum of Loewe, Bliss, HSA and ZIP scores
Experimental: as §1, §2, §3, §4, §5, §6, §7

[12] = test system: H1650; assay: In vitro combination synergy, H1650 (Cell-Titer Glo); assay type: cell-based; conditions: combined with exemplary PRMT5 inhibitor, 120 h, sum of Loewe, Bliss, HSA and ZIP scores
Experimental: as §1, §2, §3, §4, §5, §6, §7

[13] = test system: A549; assay: In vitro combination synergy, A549 (Cell-Titer Glo); assay type: cell-based; conditions: combined with exemplary PRMT5 inhibitor, 120 h, sum of Loewe, Bliss, HSA and ZIP scores
Experimental: as §1, §2, §3, §4, §5, §6, §7

[14] = test system: H2228; assay: In vitro combination synergy, H2228 (Cell-Titer Glo); assay type: cell-based; conditions: combined with exemplary PRMT5 inhibitor, 120 h, sum of Loewe, Bliss, HSA and ZIP scores
Experimental: as §1, §2, §3, §4, §5, §6, §7

[15] = test system: SU8686; assay: In vitro combination synergy, SU8686 (Cell-Titer Glo); assay type: cell-based; conditions: combined with exemplary PRMT5 inhibitor, 120 h, sum of Loewe, Bliss, HSA and ZIP scores
Experimental: as §1, §2, §3, §4, §5, §6, §7

[16] = test system: LU99 xenograft tumors; assay: In vivo combination study (LU99 model), Example 1; set-up: species or system female nu/nu mice; conditions: MRTX1719, ABT-263, ABT-199 each 100 mg/kg PO QD, alone or combined
Excerpt: Immunodeficient female nu/nu mice were implanted with 5×10^6 LU99 cancer cells in 50% Matrigel. Tumor volume measurements were collected using calipers and determined utilizing the formula 0.5×L×W^2 in which L refers to length and W refers to width of each tumor. When tumors reached approximately 125-150 mm^3, animals were randomized to receive A) vehicle, B) a PRMT5 inhibitor, C) navitoclax (ABT-263), D) venetoclax (ABT-199), E) A-1331852, F) the PRMT5 inhibitor and navitoclax, F) the PRMT5 inhibitor and venetoclax, or G) the PRMT5 inhibitor and A-1331852 all administered orally (PO) with the indicated dose and schedule for 20-34 days. Tumor volume was measured twice a week (n=5/treatment group). Average tumor volume and standard error of the mean was calculated and plotted at each study day using GraphPad Prism.
The PRMT5 inhibitor was MRTX1719 administered at 100 mg/kg once a day (QD). MRTX1719 is (2M)-2-(4-(4-(aminomethyl)-1-oxo-1,2-dihydrophthalazin-6-yl)-1-methyl-1H-pyrazol-5-yl)-4-chloro-6-cyclopropoxy-3-fluorobenzonitrile, disclosed as Example 16-8 at p. 307 of the international patent publication No. WO 2021/050915 A1, published 18 Mar. 2021, incorporated by reference in its entirety.
The BCL-2 family inhibitors used in this example, ABT-199 (venetoclax) and ABT-263 (navitoclax), were administered at 100 mg/kg once a day (QD) and supplied by Selleck Chemicals (Houston, TX).

Row | Compound | Composite Synergy Score [1] | Composite Synergy Score [2] | Composite Synergy Score [3] | Composite Synergy Score [4] | Composite Synergy Score [5] | Composite Synergy Score [6] | Composite Synergy Score [7] | Composite Synergy Score [8] | Composite Synergy Score [9] | Composite Synergy Score [10] | Composite Synergy Score [11] | Composite Synergy Score [12] | Composite Synergy Score [13] | Composite Synergy Score [14] | Composite Synergy Score [15] | also measured
1 | CC1(C)CCC(CN2CCN(c3ccc(C(=O)NS(=O)(=O)c4ccc(NCC5CCOCC5)c([N+](=O)[O-])c4)c(Oc4cnc5[nH]ccc5c4)c3)CC2)=C(c2ccc(Cl)cc2)C1 [ABT-199, venetoclax] | 0 | −7 | 2 | −33 | −6 | −12 | −8 | −8 | 28 | 20 | −16 | −11 | −7 | −13 | 4 | Average Tumor Volume ([16]; day 3): 270 mm^3; Average Tumor Volume ([16]; day 6): 462 mm^3; Average Tumor Volume ([16]; day 10): 709 mm^3; Average Tumor Volume ([16]; day 13): 956 mm^3; Average Tumor Volume ([16]; day 17): 1395 mm^3; Average Tumor Volume ([16]; day 20): 1675 mm^3; Average Tumor Volume ([16]; day −1): 153 mm^3
2 | CN(C)CC#Cc1ccc(OCCCc2sc(N3CCc4cccc(C(=O)Nc5nc6ccccc6s5)c4C3)nc2C(=O)O)c(F)c1 [A-1155463] | 37 | 44 | 17 | 14 | 88 | 0 | 12 | 27 | 37 | −11 | 29 | 51 | 22 | 46 | 50 | 
